From patent US10519134B2, “Pyrazole compounds and methods of making and using same” (Lundbeck La Jolla Research Center, Inc., priority 2015, dated 2019) come the findings set out here.

In one experiment the target is T1, MAGL (Mus musculus, UniProt O35678).
T1 construct: Proteomes (mouse brain membrane fraction or cell lysates); from tissue; host or cells: mouse brain membrane fraction (or cell lysates)
T1 sequence (O35678 1-303): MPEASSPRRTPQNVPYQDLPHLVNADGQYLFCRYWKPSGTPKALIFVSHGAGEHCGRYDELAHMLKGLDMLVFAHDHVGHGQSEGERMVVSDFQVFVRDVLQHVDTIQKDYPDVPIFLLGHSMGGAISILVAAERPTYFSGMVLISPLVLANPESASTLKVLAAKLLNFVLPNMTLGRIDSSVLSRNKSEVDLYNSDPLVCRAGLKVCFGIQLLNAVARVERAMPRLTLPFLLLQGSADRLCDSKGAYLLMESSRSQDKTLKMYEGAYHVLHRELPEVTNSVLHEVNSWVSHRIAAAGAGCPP
In words: In vitro competitive activity-based protein profiling (mouse), MAGL gel band. Format: biochemical. The conditions noted are these: for inhibition at 1 µM: read-out: MAGL % inh. 1 μM; for IC50: mouse. In a few lines: (§1)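 Mouse brain membrane proteome or cell lysate (1.0 mg/mL total protein) was preincubated with varying inhibitor concentrations for 30 min at 37 °C, then labelled for 30 min at 37 °C with FP-Rh or HT-01 (50 μM stock in DMSO). Activity was read as fluorescent band intensity after SDS-PAGE.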

A further experiment addresses T2, FAAH (Mus musculus, UniProt O08914).
T2 construct: Proteomes (mouse brain membrane fraction or cell lysates); from tissue; host or cells: mouse brain membrane fraction (or cell lysates)
T2 sequence (O08914 1-579): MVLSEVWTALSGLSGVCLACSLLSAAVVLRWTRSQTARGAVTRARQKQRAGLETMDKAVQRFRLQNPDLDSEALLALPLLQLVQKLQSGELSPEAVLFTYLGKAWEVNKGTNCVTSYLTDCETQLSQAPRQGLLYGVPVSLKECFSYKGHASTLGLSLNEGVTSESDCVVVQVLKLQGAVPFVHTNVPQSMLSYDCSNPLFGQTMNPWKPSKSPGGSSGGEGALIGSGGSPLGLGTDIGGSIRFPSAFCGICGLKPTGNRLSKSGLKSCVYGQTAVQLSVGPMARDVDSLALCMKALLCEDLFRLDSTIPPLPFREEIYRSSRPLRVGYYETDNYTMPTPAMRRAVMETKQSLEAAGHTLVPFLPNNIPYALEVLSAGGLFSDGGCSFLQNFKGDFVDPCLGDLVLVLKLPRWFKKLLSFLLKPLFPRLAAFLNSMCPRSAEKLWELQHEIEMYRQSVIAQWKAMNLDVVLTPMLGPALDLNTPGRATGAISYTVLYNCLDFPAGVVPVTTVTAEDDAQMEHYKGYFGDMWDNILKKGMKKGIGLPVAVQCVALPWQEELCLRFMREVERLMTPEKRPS
The experiment is described as follows: In vitro competitive activity-based protein profiling (mouse), FAAH gel band. Format: biochemical. The conditions noted are these: for inhibition at 1 µM: read-out: FAAH % inh. 1 μM; for IC50: mouse. In a few lines:
as §1

A value given as a limit tells only on which side of the number the result lay.

As for `CS(=O)(=O)Nc1ccn(C(=O)N2CCC3(CCCN3Cc3cc(N4CCCC4)cc(C(F)(F)F)c3)CC2)n1` [Example 163, N-(1-(1-(3-(pyrrolidin-1-yl)-5-(trifluoromethyl)benzyl)-1,8-diazaspiro[4.5]decane-8-carbonyl)-1H-pyrazol-3-yl) methanesulfonamide], the inhibition at 1 µM was no less than 75% on MAGL and 0 to 25% on FAAH.
Regarding `CS(=O)(=O)Nc1ccn(C(=O)N2CCC3(CCCN3Cc3ccc(N4CCOCC4)cc3C(F)(F)F)CC2)n1` [Example 164, N-(1-(1-(4-morpholino-2-(trifluoromethyl)benzyl)-1,8-diazaspiro[4.5]decane-8-carbonyl)-1H-pyrazol-3-yl)methanesulfonamide], the inhibition at 1 µM at MAGL and on FAAH was 0 to 25% in each case.
With `CS(=O)(=O)Nc1ccn(C(=O)N2CCN(Cc3ccc(C(F)(F)F)c(N4CCOCC4)c3)CC2)n1` [Example 168, N-(1-(4-(3-morpholino-4-(trifluoromethyl)benzyl)piperazine-1-carbonyl)-1H-pyrazol-3-yl) methanesulfonamide], the inhibition at 1 µM on MAGL is no less than 75%; at FAAH, 0 to 25%.
The matching figures for `CS(=O)(=O)Nc1ccn(C(=O)N2CCN(Cc3ccc(N4CCC(C(=O)O)CC4)c(C(F)(F)F)c3)CC2)n1` [Example 169, 1-(4-((4-(3-(methylsulfonamido)-1H-pyrazole-1-carbonyl)piperazin-1-yl)methyl)-2-(trifluoromethyl)phenyl)piperidine-4-carboxylic acid]: 0 to 25% and 0 to 25%.
The matching figures for `CS(=O)(=O)Nc1ccn(C(=O)N2CCN(Cc3ccc(N4CCOCC4)c(Cl)c3)CC2)n1` [Example 170, N-(1-(4-(3-chloro-4-morpholinobenzyl)piperazine-1-carbonyl)-1H-pyrazol-3-yl) methanesulfonamide]: 25 to 50% and 0 to 25%.
The matching figures for `CS(=O)(=O)Nc1ccn(C(=O)N2CCN(Cc3cc(Cl)cc(C(F)(F)F)c3)CC2)n1` [Example 176, N-(1-(4-(3-chloro-5-(trifluoromethyl)benzyl)piperazine-1-carbonyl)-1H-pyrazol-3-yl) methanesulfonamide]: no less than 75% and 0 to 25%.
`CS(=O)(=O)Nc1ccn(C(=O)N2CCN(Cc3cc(C(F)(F)F)cc(C(F)(F)F)c3)CC2)n1` [Example 177, N-(1-(4-(3,5-bis(trifluoromethyl)benzyl)piperazine-1-carbonyl)-1H-pyrazol-3-yl) methanesulfonamide]: the inhibition at 1 µM on MAGL was no less than 75%; on FAAH, 0 to 25%.
The corresponding values for `CS(=O)(=O)Nc1ccn(C(=O)N2CCN(Cc3cc(Cl)ccc3N3CCCC3)CC2)n1` [Example 179, N-(1-(4-(5-chloro-2-(pyrrolidin-1-yl)benzyl)piperazine-1-carbonyl)-1H-pyrazol-3-yl) methanesulfonamide] are no less than 75% and 0 to 25%.
The corresponding values for `CS(=O)(=O)Nc1ccn(C(=O)N2CCN(Cc3cc(N4CCOCC4)ccc3C(F)(F)F)CC2)n1` [Example 181, N-(1-(4-(5-morpholino-2-(trifluoromethyl)benzyl)piperazine-1-carbonyl)-1H-pyrazol-3-yl) methanesulfonamide] are 50 to 75% and 0 to 25%.
Regarding `CS(=O)(=O)Nc1ccn(C(=O)N2CCN(C(c3ccc(Cl)cc3)c3ccc(Cl)cc3)CC2)n1` [Example 182, N-(1-(4-(bis(4-chlorophenyl)methyl)piperazine-1-carbonyl)-1H-pyrazol-3-yl) methanesulfonamide], the inhibition at 1 µM at MAGL and at FAAH was 0 to 25% in each case.
For the compound `CS(=O)(=O)Nc1ccn(C(=O)N2CCN(Cc3ccc(-c4ccccc4)cc3OCc3ccccc3)CC2)n1` [Example 183, N-(1-(4-((3-(benzyloxy)-[1,1′-biphenyl]-4-yl)methyl)piperine-1-carbonyl)-1H-pyrazol-3-yl) methanesulfonamide], the inhibition at 1 µM at MAGL is no less than 75%; at FAAH it was 0 to 25%.
The corresponding values for `Cn1ncc2cc(CN3CCN(C(=O)n4ccc(NS(C)(=O)=O)n4)CC3)ccc21` [Example 184, N-(1-(4-((1-methyl-1H-indazol-5-yl)methyl)piperazine-1-carbonyl)-1H-pyrazol-3-yl) methanesulfonamide] are 25 to 50% and 0 to 25%.
`CC(=O)Nc1ccn(C(=O)N2CCC3(CCCN3Cc3ccc4c(ccn4C)c3)CC2)n1` [Example 185, N-(1-(1-((1-methyl-1H-indol-5-yl)methyl)-1,8-diazaspiro[4.5]decane-8-carbonyl)-1H-pyrazol-3-yl)acetamide]: the IC50 at MAGL and on FAAH was 1000 to 10000 nM each time. Further, the inhibition at 1 µM was no less than 75% on MAGL and 0 to 25% on FAAH.
As for `CS(=O)(=O)Nc1ccn(C(=O)N2CCN(Cc3cc(N4CCCC4)ccc3C(F)(F)F)CC2)n1` [Example 195, N-(1-(4-(5-(pyrrolidin-1-yl)-2-(trifluoromethyl)benzyl)piperazine-1-carbonyl)-1H-pyrazol-3-yl) methanesulfonamide], the inhibition at 1 µM was no less than 75% at MAGL and 0 to 25% on FAAH.
The corresponding values for `CS(=O)(=O)Nc1ccn(C(=O)N2CCN(Cc3ccc(Cl)c(-c4nnn[nH]4)c3)CC2)n1` [Example 214, N-(1-(4-(4-chloro-3-(1H-tetrazol-5-yl)benzyl)piperazine-1-carbonyl)-1H-pyrazol-3-yl) methanesulfonamide] are 0 to 25% and 0 to 25%.
For the compound `CN1CCC(Oc2cc(CN3CCN(C(=O)n4ccc(NS(C)(=O)=O)n4)CC3)ccc2Cl)CC1` [Example 220, N-(1-(4-(4-chloro-3-((1-methylpiperidin-4-yl)oxy)benzyl)piperazine-1-carbonyl)-1H-pyrazol-3-yl) methanesulfonamide], the inhibition at 1 µM was in the range of 25 to 50% on MAGL and 0 to 25% at FAAH.
`CC(=O)Nc1ccn(C(=O)N2CCN(Cc3ccc(C(F)(F)F)c(-c4nnn[nH]4)c3)CC2)n1` [Example 222, N-(1-(4-(3-(1H-tetrazol-5-yl)-4-(trifluoromethyl)benzyl)piperazine-1-carbonyl)-1H-pyrazol-3-yl)acetamide]: the half-maximal inhibitory concentration (IC50) was no more than 100 nM at MAGL and 1000 to 10000 nM on FAAH. Besides, the inhibition at 1 µM was no less than 75% on MAGL and 0 to 25% at FAAH.
Turning to `Cc1c(CN2CCCC23CCN(C(=O)n2ccc(NS(C)(=O)=O)n2)CC3)cccc1N1CCCC1` [Example 224, N-(1-(1-(2-methyl-3-(pyrrolidin-1-yl)benzyl)-1,8-diazaspiro[4.5]decane-8-carbonyl)-1H-pyrazol-3-yl) methanesulfonamide], on MAGL, the IC50 fell in the range of 1000 to 10000 nM and the inhibition at 1 µM was no less than 75%. For the same compound, at FAAH, the IC50 fell in the range of 1000 to 10000 nM and the inhibition at 1 µM was in the range of 0 to 25%.
Consider `CN1CCN(c2c(Cl)cccc2CN2CCN(C(=O)n3ccc(NS(C)(=O)=O)n3)CC2)CC1` [Example 225, N-(1-(4-(3-chloro-2-(4-methylpiperazin-1-yl)benzyl)piperazine-1-carbonyl)-1H-pyrazol-3-yl) methanesulfonamide], for which the inhibition at 1 µM on MAGL and at FAAH was 0 to 25% each time.
For `Cc1c(CN2CCCC23CCN(C(=O)n2ccc(NS(C)(=O)=O)n2)CC3)cccc1N1CCOCC1` [Example 226, N-(1-(1-(2-methyl-3-morpholinobenzyl)-1,8-diazaspiro[4.5]decane-8-carbonyl)-1H-pyrazol-3-yl) methanesulfonamide], the inhibition at 1 µM at MAGL and on FAAH was 0 to 25% in each case.
As for `CCN1CCN(c2cc(C(F)(F)F)ccc2CN2CCCC23CCN(C(=O)n2ccc(NS(C)(=O)=O)n2)CC3)CC1` [Example 238, N-(1-(1-(2-(4-ethylpiperazin-1-yl)-4-(trifluoromethyl)benzyl)-1,8-diazaspiro[4.5]decane-8-carbonyl)-1H-pyrazol-3-yl) methanesulfonamide], the inhibition at 1 µM at MAGL and on FAAH was 0 to 25% each time.
Consider `CS(=O)(=O)Nc1ccn(C(=O)N2CCC3(CCCN3Cc3ccc(C(F)(F)F)cc3N3CCN(C4CC4)CC3)CC2)n1` [Example 239, N-(1-(1-(2-(4-cyclopropylpiperazin-1-yl)-4-(trifluoromethyl)benzyl)-1,8-diazaspiro[4.5]decane-8-carbonyl)-1H-pyrazol-3-yl) methanesulfonamide], for which the inhibition at 1 µM at MAGL and on FAAH was 0 to 25% throughout.
